From publication PMC12040169 (PLOS Biology, 2025)

Test: in vitro
Conditions: human, hela cells

Row | Compound | viability at 28.5 h, 10 µM (% viability) [%] | further results
1 | Cc1cccc(C)c1-c1cn2ccnc2c(N2CCN(c3ccccn3)CC2)n1 [CBK037389] | 89 | –
2 | O=S(=O)(Nc1nc2cc(Cl)ccc2o1)c1ccc(Oc2ccccc2)cc1 [CBK050499] | 97.8 | –
3 | CCc1nc2ccc(C(=O)N(C)CCN(C)C)cn2c1N(C)Cc1cc2ccccc2s1 [CBK146551] | 89.3 | –
4 | O=C(Nc1ccccc1C(=O)N1CCN(Cc2ccccc2)CC1)c1ccc(F)cc1 [CBK264948] | 99.3 | –
5 | Cc1nn(C)cc1S(=O)(=O)NCC1(c2ccccc2)CCCC1 [CBK282766] | 85.9 | –
6 | CC(NC(=O)Cc1c[nH]c(=O)[nH]c1=O)c1cc2cc(Cl)ccc2o1 (centres unmarked) [CBK285673] | 100 | –
7 | CC(=O)NCC1CC(=O)N(c2ccc(Br)cc2)C1 (centres unmarked) [CBK008134] | 109 | –
8 | O=C(CC1CC1)Nc1snnc1-c1ccc(Cl)cc1 [CBK153239] | 97 | –
9 | CS(=O)(=O)N1CCN(c2ccc(NC(=O)c3ccc(-c4cccc([N+](=O)[O-])c4)o3)cc2)CC1 [CBK268602] | 98.6 | –
10 | CN1CCN(C(=O)c2cccc(-c3ncc(OCC(F)(F)F)nc3N)c2)CC1 [CBK145196] | 91.3 | –
11 | COCc1ccc(C(=O)N2CCCC(c3cc4ncccc4[nH]3)C2)o1 (centres unmarked) [CBK282106] | 87 | –
12 | Cc1ccccc1S(=O)(=O)N(c1ccc(C(C)(C)C)cc1)C1CCNCC1 [CBK165074T] | 97.8 | –
13 | CN(C)C(=O)Oc1cc(CN2CCCC2)c2ccn(S(=O)(=O)c3ccccc3)c2c1 [CBK137151T] | – | viability at 28.5 h, 10 µM: 101%
14 | COc1ccc(C(C)C)cc1-c1cncc(NCC(c2cccnc2)N(C)C)n1 (centres unmarked) [CBK037132] | 110 | –
15 | O=C(O)C1CC1C(=O)N1CCC2(CC1)OCc1cc(-c3ccco3)ccc1O2 (centres unmarked) [CBK060825] | – | viability at 28.5 h, 10 µM (% viability, bulk resorufin, single well): 103%
16 | CC(C)(C)C1=CC2=NC3(CCCC3)[C@@H]3C[C@@H](O)[C@@H](O)[C@@H]3N2O1 [CBK303245] | 95.1 | –
17 | Cc1c(NC(=S)NC(=O)Cc2ccccc2)cccc1-c1nc2ncccc2o1 [CBK264345] | 118 | –
18 | CC(C)NC(=O)c1sc2ccccc2c1C1CCN(C(=O)COc2ccccc2)C1 (centres unmarked) [CBK285875] | 113 | –
19 | COc1nccnc1OC1CCN(CCc2ccc3ccccc3c2)CC1 [CBK084264] | 107 | –
20 | C=CCSc1nc2ccccc2c(=O)n1CCc1ccccc1 [CBK055285] | 81.9 | –
21 | O=C(Nc1nc(-c2ccccc2)cs1)c1ccc(N2C(=O)CCC2=O)cc1 [CBK287333] | 97.7 | –
22 | Cn1c(=O)c2c(nc(NCCN)n2C)n(C)c1=O [CBK268680] | 107 | –

Row | Compound | viability at 28.5 h, 10 µM (% viability) [%] | further results
23 | CC(C)(c1ccc(Oc2ccc3c(c2)C(=O)N(c2nccs2)C3=O)cc1)c1ccc(Oc2ccc3c(c2)C(=O)N(c2nccs2)C3=O)cc1 [CBK262258] | 103 | –
24 | COc1ccc(-c2nc(NC(=O)c3ccncc3)cnc2-c2ccc(F)c(Cl)c2)cc1 [CBK036663] | 88.6 | –
25 | COc1cc(/C=C/C(=O)NCc2ccc(C(=O)O)cc2)ccc1O [CBK286728] | 86.4 | –
26 | COc1cc(/C=N/n2c(S)nnc2C(F)(F)F)cc(Br)c1O [CBK265321] | 74.2 | –
27 | Cn1nc(-c2ccccc2)cc1[C@H]1CN2CC[C@H]1C[C@@H]2CNC(=O)NCc1ccccc1 [CBK289098] | 104 | –
28 | CN1CCN(Cc2oc(CO)cc(=O)c2O)CC1 [CBK288394] | 89.6 | –
29 | O=C(Nc1ccccc1C(F)(F)F)NC1CC2CCCC(C1)N2C1CC1 (centres unmarked) [CBK143578] | 103 | –
30 | OCc1ccccc1-c1nccnc1NCc1ccc2c(c1)OCO2 [CBK038046] | 95.7 | –
31 | O=C(O)c1cnc(Cl)c(Br)c1 [CBK026874] | 83.7 | –
32 | COc1ccc(OC)c(-c2cc(C(=O)O)c(C)s2)c1 [CBK049922] | 96.5 | –
33 | O=c1[nH]c(Nc2ccccc2)nc2nccc(-c3ccccc3)c12 [CBK288072] | 88.8 | –
34 | O=C(Cc1ccccc1)Nc1nnc(C2=COCCO2)o1 [CBK287416] | 92.2 | –
35 | N#CCCn1cc(C(=O)N2CCCCC2)c(-c2ccccc2)n1 [CBK305931] | 100 | –
36 | CCc1c(C(=O)NC2CCCOC2)[nH]c2ccc(F)cc12 (centres unmarked) [CBK283115] | 97.5 | –
37 | CCOC(=O)CNC(=O)c1cc2ccccc2c(=O)o1 [CBK058083] | 97.9 | –
38 | COc1ccc(CN2Cc3nc[nH]c3C[C@H]2C(=O)N2CCC(Cc3ccccc3)CC2)cc1 [CBK288980] | 110 | –
39 | CC(C)(C)c1ccc(C(=O)NCCNC(=O)c2nonc2N)cc1 [CBK268869] | 89.5 | –
40 | Cc1ccc(CN(CCN(C)C)Cc2c(C)nc3sccn23)o1 [CBK283229] | 116 | –
41 | CCN(CCO)c1ccc(Nc2cc(-c3cc4ccccc4o3)ncn2)cc1 [CBK090999] | 94.8 | –
42 | Cc1nn(CC(C)C(=O)NCCN2CCC(C)CC2)c(C)c1Cl (centres unmarked) [CBK281570] | 94.2 | –
43 | CSc1nsc(SCC(=O)c2ccc(NC(C)=O)cc2)n1 [CBK268755] | 82.3 | –
44 | CC(=O)N1CCN(C(=O)c2cnc(-c3ccc(Cl)cc3)c(-c3ccco3)c2)CC1 [CBK037518] | 98.1 | –

Row | Compound | viability at 28.5 h, 10 µM (% viability) [%] | further results
45 | O=C(COc1ccc2ccccc2c1)Nc1ccc(S(=O)(=O)N2CCc3ccccc32)cc1 [CBK263802] | 91.5 | –
46 | CCN1CCCN(c2cc(OCc3ccc(Cl)c(Cl)c3)ncn2)CC1 [CBK083786] | 92.3 | –
47 | CN(C)CC1CCCCN1S(=O)(=O)c1ccc(C(C)(C)C)cc1 (centres unmarked) [CBK051347] | 108 | –
48 | O=C(NC1CCCCC1)c1csc(-c2ccncc2)n1 [CBK288591] | 64.2 | –
49 | Cc1cc(C(=O)NCCO)ccc1Br [CBK175092] | 92 | –
50 | O=S(=O)(NCCN1CCOCC1)c1ccc(Cl)c(Cl)c1Cl [CBK264973] | 109 | –
51 | O=C(Nc1ccc(Cl)c(Cl)c1)c1cnc2sccn2c1=O [CBK287449] | 83.3 | –
52 | O=c1[nH]nc2ccc(S(=O)(=O)N3CCCCC3)cn12 [CBK288459] | 89.5 | –
53 | Cc1nn(-c2ccccc2)c2c1C(c1cnn(C)c1)SCC(=O)N2 (centres unmarked) [CBK287896] | 114 | –
54 | O=C(O)c1ccccc1-c1ccc(/C=C2\S/C(=N\c3ccccc3)N(c3ccccc3)C2=O)o1 [CBK262566] | 101 | –
55 | CCOC(=O)C1(Cc2ccc(F)cc2F)CCCN(S(=O)(=O)CC)C1 (centres unmarked) [CBK307655] | 92.6 | –
56 | CN(C)Cc1c(O)ccc2occ(C(O)c3ccccc3)c12 (centres unmarked) [CBK261313] | 104 | –
57 | COc1cc(CNc2nnn[nH]2)cc(Cl)c1OC [CBK288087] | 97.8 | –
58 | CC(C)(CN)CN(Cc1ccccc1C(F)(F)F)C(=O)Nc1ccc(Cl)cc1Cl [CBK026832C] | 93.5 | –
59 | O=C(CCSc1nc(-c2ccco2)cc(C(F)(F)F)n1)N1CCN(c2ccccn2)CC1 [CBK267626] | 99 | –
60 | COc1ccccc1NC(=O)N1C[C@@H]2C[C@H](C1)c1c(-c3cccc(C#N)c3)ccc(=O)n1C2 [CBK289197] | 92.8 | –
61 | Cc1ccccc1CC(=O)NCC(c1ccccc1Cl)N1CCOCC1 (centres unmarked) [CBK304564] | 85.3 | –
62 | O=S(=O)(/N=C(/NS(=O)(=O)c1cccc2ccccc12)c1ccccc1)c1ccccc1 [CBK263105] | 112 | –
63 | CC1Cc2cc(C(O)CN3CCCC3)ccc2N1C(=O)C1CC1 (centres unmarked) [CBK286440] | 94.9 | –
64 | O=C(CN1CCOCC1)NC1(c2ccccc2)CCCCC1 [CBK059545C] | 85.6 | –
65 | CCN(Cc1ccccc1)Cc1c(O)ccc2c(=O)c(-c3ccccc3OC)c(C(F)(F)F)oc12 [CBK265839] | 90 | –
66 | Cc1nc(-c2ccc(NC(=O)CC(C)n3cccn3)cc2)cs1 (centres unmarked) [CBK281403] | 98.4 | –

Row | Compound | viability at 28.5 h, 10 µM (% viability) [%] | further results
67 | O=S(=O)(Nc1ccc(-c2nnn[nH]2)cc1)c1c(F)cccc1F [CBK154734] | 92.2 | –
68 | COc1cccc(CC(=O)N2CCCC(c3cc4ncccc4[nH]3)C2)c1 (centres unmarked) [CBK283426] | 94.1 | –
69 | COc1cc2c(cc1OC)CN(C(=O)CSc1nc(-c3cccnc3)ccc1C#N)CC2 [CBK267464] | 69.8 | –
70 | CCN1CCN(c2ccc([N+](=O)[O-])cc2S(=O)(=O)N2CCOCC2)CC1 [CBK264410] | 113 | –
71 | Oc1c(Br)cc2oc3c(c2c1CNc1ccccc1)CCCC3 [CBK160397] | 103 | –
72 | CC(=O)Nc1ccc(-c2ccc(C(=O)NCC3COc4ccccc4O3)cn2)cc1 (centres unmarked) [CBK158832] | 99.3 | –
73 | Cc1ccc(OCC(=O)Nc2sc(C)c(C)c2C#N)c([N+](=O)[O-])c1 [CBK268162] | 101 | –
74 | N#Cc1ccc(S(=O)(=O)NC2CCCCNC2=O)cc1 (centres unmarked) [CBK009293] | 102 | –
75 | Oc1cc(C(F)(F)F)nc(NCc2ccc(-c3ccccc3)cc2)n1 [CBK002395] | 105 | –
76 | CCOC(=O)C(C)n1nc(C)n2c(cc3sccc32)c1=O (centres unmarked) [CBK283333] | 67 | –
77 | c1ccc(OCc2nc3c4c(-c5ccccc5)c(-c5ccccc5)oc4ncn3n2)cc1 [CBK262939] | 94.6 | –
78 | COc1cccc2ncn(CCNS(C)(=O)=O)c(=O)c12 [CBK306583] | 81 | –
79 | COc1ccc(C(=O)OC(C)(C)C)c(-c2nccnc2N[C@@H](C)c2ccccc2)c1 [CBK036994] | 94.2 | –
80 | Cc1oc(-c2ccccc2)cc1C(=O)Nc1ccccc1N1CCCNCC1 [CBK038940T] | 83.5 | –
81 | CN1CCN(C(=O)CC[C@@H]2CNC(=O)[C@@H]3C[C@H](NC(=O)c4cccs4)CN23)CC1 [CBK289013] | 124 | –
82 | CSc1ccccc1NC(=O)Cn1c(-c2nonc2N)nc2ccccc21 [CBK266919] | 90 | –
83 | Cc1c(C(=O)NCCOc2ccc(-c3ccccc3)cc2)sc2nc[nH]c(=O)c12 [CBK285805] | 92.2 | –
84 | CC(=O)ON=C1c2cc(S(=O)(=O)N(C)C)ccc2-c2ccc(S(=O)(=O)N(C)C)cc21 [CBK262807] | 87.1 | –
85 | O=C(CSc1ncccc1C(=O)O)c1ccccc1 [CBK273178] | 94.1 | –
86 | CCCCOc1ccc(S(=O)(=O)Nc2ccc(-c3cn4ccccc4n3)cc2)cc1 [CBK264374] | 88.9 | –
